Assays:
[1] = tested on: Amaranthus retroflexus; assay: Weeding effect in post-emergence stage; format: in vivo; conditions: 250 g/ha; 2 leaf stage; 15 days after application; fresh weight control rate
Text: (§1) The activity level criteria for harmful plant damage (i.e., growth control rate) are as follows: • Level 5: growth control rate is above 85%; • Level 4: growth control rate is greater than or equal to 60% and less than 85%; • Level 3: growth control rate is greater than or equal to 40% and less than 60%; • Level 2: growth control rate is greater than or equal to 20% and less than 40%; • Level 1: growth control rate is greater than or equal to 5% and less than 20%; • Level 0: growth control rate is less than 5%.
(§2) The above growth control rates are fresh weight control rates.
(§3) Experiment on weeding effect in post-emergence stage: monocotyledonous and dicotyledonous weed seeds (Descurainia sophia, Capsella bursa-pastoris, Galium aparine, Stellaria media, Lithospermum arvense, Rorippa indica, Alopecurus aequalis, Beckmannia syzigachne, Sclerochloa dura, Phleum paniculatum, Bromus japonicus, Aegilops tauschii, Phalaris arundinacea, Amaranthus retroflexus, Chenopodiaceae, Commelina communis, Sonchus arvensis, convolvulus arvensis, Cirsium setosum, Solanum nigrum, Acalypha australis, Digitaria sanguinalis, Echinochloa crusgalli, Setaria viridis, Setaria glauca, Leptochloa chinensis, Monochoria vaginalis, Sagittaria trifolia, Scirpus juncoides, Cyperus rotundus, Cyperus iria, Cyperus difformis, Fimbristylis, Portulaca oleracea, Xanthium sibiricum, Pharbitis nil) and major crop seeds (wheat, corn, rice, soybean, cotton, oilseed rape, millet, sorghum, potato, sesame, ricinus) were placed in plastic pots filled with soil, then covered with 0.5-2 cm of soil, allowed to grow in a good greenhouse environment. After 2 weeks of sowing, the test plants were treated in the 2 leaf stage. The tested compounds of the present invention were respectively dissolved in acetone, then added with Tween 80 and 1.5 liter/ha of emulsifiable concentrate of methyl oleate as synergist, diluted with a certain amount of water to obtain a solution with a certain concentration, and sprayed with a spray tower onto the plants. After the application, the plants were cultured for 15 days in the greenhouse, and then the experimental results of the weeding were counted. The doses of the used compounds were 500, 250, 125, 60, 30, 15 g/ha, and the averages were obtained by repeating for three times.

[2] = tested on: Echinochloa crusgali; assay: Weeding effect in post-emergence stage; format: in vivo; conditions: 250 g/ha; 2 leaf stage; 15 days after application; fresh weight control rate
Text: as §1, §2, §3

Row | Compound | weeding effect in post-emergence stage, activity level (growth control rate), Amaranthus retroflexus [1] | weeding effect in post-emergence stage, activity level (growth control rate), Echinochloa crusgali [2]
1 | CC[S@@+]([O-])c1c(C(F)(F)F)ccc(C(=O)Nc2nnc(C3CC3)o2)c1OC [Compound 428] | 5 (Level 5: growth control rate is above 85%) | 5 (Level 5: growth control rate is above 85%)
2 | CCCCn1nnnc1NC(=O)c1ccc(C(F)(F)F)c([S@+]([O-])CC)c1OC [Compound 448] | 5 (Level 5: growth control rate is above 85%) | 5 (Level 5: growth control rate is above 85%)
3 | CC[S@@+]([O-])c1c(C(F)(F)F)ccc(C(=O)Nc2ccon2)c1OC [Compound 457] | 5 (Level 5: growth control rate is above 85%) | 5 (Level 5: growth control rate is above 85%)
4 | CC[S@@+]([O-])c1c(C(F)(F)F)ccc(C(=O)Nc2nocc2C)c1OC [Compound 458] | 5 (Level 5: growth control rate is above 85%) | 5 (Level 5: growth control rate is above 85%)
5 | CC[S@@+]([O-])c1c(C(F)(F)F)ccc(C(=O)Nc2ncnn2C)c1OC [Compound 471] | 5 (Level 5: growth control rate is above 85%) | 5 (Level 5: growth control rate is above 85%)
6 | Cc1ccc(C(=O)Nc2nnnn2C)c(C)c1[S@+]([O-])C(C)C [Compound 476] | 5 (Level 5: growth control rate is above 85%) | 5 (Level 5: growth control rate is above 85%)
7 | Cc1ccc(C(=O)Nc2nnnn2C)c(C)c1[S@+]([O-])CC(C)C [Compound 477] | 5 (Level 5: growth control rate is above 85%) | 5 (Level 5: growth control rate is above 85%)
8 | Cc1ccc(C(=O)Nc2nnnn2C)c(C)c1[S@+]([O-])CC(F)(F)F [Compound 478] | 5 (Level 5: growth control rate is above 85%) | 5 (Level 5: growth control rate is above 85%)
9 | CC[S@@+]([O-])c1c(C)ccc(C(=O)Nc2nnc(C)o2)c1C [Compound 481] | 5 (Level 5: growth control rate is above 85%) | 5 (Level 5: growth control rate is above 85%)
10 | CCC[S@@+]([O-])c1c(C)ccc(C(=O)Nc2nnc(C)o2)c1C [Compound 482] | 5 (Level 5: growth control rate is above 85%) | 5 (Level 5: growth control rate is above 85%)
11 | Cc1nnc(NC(=O)c2ccc(C)c([S@+]([O-])C(C)C)c2C)o1 [Compound 483] | 5 (Level 5: growth control rate is above 85%) | 5 (Level 5: growth control rate is above 85%)
12 | Cc1nnc(NC(=O)c2ccc(C)c([S@+]([O-])CC(C)C)c2C)o1 [Compound 484] | 5 (Level 5: growth control rate is above 85%) | 5 (Level 5: growth control rate is above 85%)
13 | Cc1nnc(NC(=O)c2ccc(C)c([S@+]([O-])CC(F)(F)F)c2C)o1 [Compound 485] | 5 (Level 5: growth control rate is above 85%) | 5 (Level 5: growth control rate is above 85%)
14 | Cc1nnc(NC(=O)c2ccc(C(C)C)c([S@@+](C)[O-])c2C)o1 [Compound 486] | 5 (Level 5: growth control rate is above 85%) | 5 (Level 5: growth control rate is above 85%)
15 | Cc1nnc(NC(=O)c2ccc(S(C)(=O)=O)c([S@@+](C)[O-])c2C)o1 [Compound 491] | 5 (Level 5: growth control rate is above 85%) | 5 (Level 5: growth control rate is above 85%)
16 | CCC[S@@+]([O-])c1c(S(C)(=O)=O)ccc(C(=O)Nc2nnc(C)o2)c1C [Compound 492] | 5 (Level 5: growth control rate is above 85%) | 5 (Level 5: growth control rate is above 85%)
17 | Cc1nnc(NC(=O)c2ccc(S(C)(=O)=O)c([S@+]([O-])C(C)C)c2C)o1 [Compound 493] | 5 (Level 5: growth control rate is above 85%) | 5 (Level 5: growth control rate is above 85%)
18 | C=CC[S@@+]([O-])c1c(S(C)(=O)=O)ccc(C(=O)Nc2nnc(C)o2)c1C [Compound 496] | 5 (Level 5: growth control rate is above 85%) | 5 (Level 5: growth control rate is above 85%)
19 | C#CC[S@@+]([O-])c1c(S(C)(=O)=O)ccc(C(=O)Nc2nnc(C)o2)c1C [Compound 497] | 5 (Level 5: growth control rate is above 85%) | 5 (Level 5: growth control rate is above 85%)
20 | Cc1nnc(NC(=O)c2ccc(S(C)(=O)=O)c([S@+]([O-])CC3CC3)c2C)o1 [Compound 498] | 5 (Level 5: growth control rate is above 85%) | 5 (Level 5: growth control rate is above 85%)
21 | Cc1nnc(NC(=O)c2ccc(S(C)(=O)=O)c([S@+]([O-])CCF)c2C)o1 [Compound 499] | 5 (Level 5: growth control rate is above 85%) | 5 (Level 5: growth control rate is above 85%)
22 | Cc1nnc(NC(=O)c2ccc(S(C)(=O)=O)c([S@+]([O-])CC(F)(F)F)c2C)o1 [Compound 500] | 5 (Level 5: growth control rate is above 85%) | 5 (Level 5: growth control rate is above 85%)
23 | Cc1nnc(NC(=O)c2ccc(S(C)(=O)=O)c([S@+]([O-])CC(C)F)c2C)o1 (stereo partly drawn) [Compound 501] | 5 (Level 5: growth control rate is above 85%) | 5 (Level 5: growth control rate is above 85%)
24 | Cc1c(C(=O)Nc2nnnn2C)ccc(S(C)(=O)=O)c1[S@@+](C)[O-] [Compound 511] | 5 (Level 5: growth control rate is above 85%) | 5 (Level 5: growth control rate is above 85%)
